In patent publication US4073913A, “N^2 -arylsulfonyl-L-argininamides and the pharmaceutically acceptable salts thereof” (Mitsubishi Chemical Industries Limited, priority 1974, dated 1978):
Non-standard residues stand in square brackets, D forms with d. Residues, ends and D or L forms follow the SMILES beside them. ξ: configuration not given here. *: point of attachment. Dansyl = CN(C)c1cccc2c(S(=O)(=O)*)cccc12; ξPip = O=C(O)C1CCCCN1

target: T1, thrombin (Bos taurus, UniProt P00735); test: fibrinogen coagulation time (concentration required to prolong the coagulation time by a factor of two); assay type: biochemical; conditions: bovine fibrinogen, thrombin 5 units/ml, borate saline buffer pH 7.4, 25° C; control 50-55 seconds prolonged to 100-110 seconds
T1 construct: clotting of bovine fibrinogen
Experimental: The measurement of the fibrinogen coagulation time was conducted as follows:
Immediately after mixing, the reaction mixture was transferred from the ice bath to a bath maintained at 25° C. Coagulation times were taken as the period between the time of transference to the 25° C bath and the time of the first appearance of fibrin threads. […] The term "concentration required to prolong the coagulation time by a factor of two" is the concentration of an active ingredient required to prolong the normal coagulation time 50-55 seconds to 100-110 seconds.

Structure (SMILES) | IC (2-fold clotting time) [µM]
COCCN(CC(=O)O)C(=O)[C@H](CCCNC(=N)N)NS(=O)(=O)c1cccc2c1CCCC2 [compound 132] | 10
CCCCCN(CC(=O)O)C(=O)[C@H](CCCNC(=N)N)NS(=O)(=O)c1ccc2cc(OC)c(OC)cc2c1 [compound 7] | 5
COCCN(CC(=O)O)C(=O)[C@H](CCCNC(=N)N)NS(=O)(=O)c1cccc2ccc(C)cc12 [compound 151] | 20
CCCCCCN(CC(=O)O)C(=O)[C@H](CCCNC(=N)N)NS(=O)(=O)c1ccc2cc(OC)c(OC)cc2c1 [compound 9] | 1.5
CCOC(=O)CN(CCOC)C(=O)[C@H](CCCNC(=N)N)NS(=O)(=O)c1ccc2cc(OC)c(OC)cc2c1 [compound 14] | 1.5
CC1CCN(C(=O)[C@H](CCCNC(=N)N)NS(=O)(=O)c2cccc3ccccc23)C(C(=O)O)C1 (stereo partly shown) [compound 179] | 1
COc1cc2ccc(S(=O)(=O)N[C@@H](CCCNC(=N)N)C(=O)N3CCCCC3C(=O)O)cc2cc1OC (stereo partly shown) [compound 71] | 5
COc1cc2ccc(S(=O)(=O)N[C@@H](CCCNC(=N)N)C(=O)N3Cc4ccccc4C3C(=O)O)cc2cc1OC (stereo partly shown) [compound 195] | 1.5
Cc1ccc2ccc(S(=O)(=O)N[C@@H](CCCNC(=N)N)C(=O)N(CC(=O)O)CC3CCCCC3)cc2c1 [compound 146] | 14
CCOC(=O)CCN(CC(=O)O)C(=O)[C@H](CCCNC(=N)N)NS(=O)(=O)c1ccc2cc(OC)c(OC)cc2c1 [compound 196] | 6.5
CCOCCN(CCC(=O)O)C(=O)[C@H](CCCNC(=N)N)NS(=O)(=O)c1ccc2cc(OC)c(OC)cc2c1 [compound 21] | 4
COCCN(CC(=O)O)C(=O)[C@H](CCCNC(=N)N)NS(=O)(=O)c1cccc2c(OC)cccc12 [compound 43] | 2.5
COCCN(CC(=O)O)C(=O)[C@H](CCCNC(=N)N)NS(=O)(=O)c1cc(OC)c2cc(OC)ccc2c1 [compound 23] | 4
COCCN(CC(=O)O)C(=O)[C@H](CCCNC(=N)N)NS(=O)(=O)c1ccc2ccc(OC)cc2c1 [compound 35] | 0.5
COCCN(CC(=O)Oc1ccc2c(c1)CCC2)C(=O)[C@H](CCCNC(=N)N)NS(=O)(=O)c1ccc2cc(OC)c(OC)cc2c1 [compound 203] | 30
COCCN(CC(=O)O)C(=O)[C@H](CCCNC(=N)N)NS(=O)(=O)c1cccc2cc(C)c(C)cc12 [compound 152] | 10
CN(C)c1cccc2c(S(=O)(=O)N[C@@H](CCCNC(=N)N)C(=O)N3CCCCC3C(=O)O)cccc12 (stereo partly shown) [compound 183] (Dansyl-Arg-[ξPip]-OH) | 0.35
Cc1ccc2ccc(S(=O)(=O)N[C@@H](CCCNC(=N)N)C(=O)N3CCC(C(C)C)CC3C(=O)O)cc2c1 (stereo partly shown) [compound 175] | 0.1
COCCN(CC(=O)O)C(=O)[C@H](CCCNC(=N)N)NS(=O)(=O)c1ccc2cc(OC)c(OC)cc2c1 [compound 13] | 0.5
COc1ccc2cc(S(=O)(=O)N[C@@H](CCCNC(=N)N)C(=O)N(CC3CCCCC3)C(C)C(=O)O)cc(OC)c2c1 (stereo partly shown) [compound 126] | 4.5

Structure (SMILES) | IC (2-fold clotting time) [µM]
CCCCCCCCOC(=O)CN(CCOC)C(=O)[C@H](CCCNC(=N)N)NS(=O)(=O)c1ccc2cc(OC)c(OC)cc2c1 [compound 200] | 2
CCOc1cc2ccc(S(=O)(=O)N[C@@H](CCCNC(=N)N)C(=O)N(CCOC)CC(=O)O)cc2cc1OCC [compound 27] | 15
CC(C)C1CCN(C(=O)[C@H](CCCNC(=N)N)NS(=O)(=O)c2ccc3ccccc3c2)C(C(=O)O)C1 (stereo partly shown) [compound 181] | 0.5
CCCC(C(=O)O)N(CC(=O)O)C(=O)[C@H](CCCNC(=N)N)NS(=O)(=O)c1ccc2cc(OC)c(OC)cc2c1 (stereo partly shown) [compound 207] | 55
CCCCCN(C(=O)[C@H](CCCNC(=N)N)NS(=O)(=O)c1ccc2cc(OC)c(OC)cc2c1)C(C)C(=O)O (stereo partly shown) [compound 118] | 2
COc1cc2ccc(S(=O)(=O)N[C@@H](CCCNC(=N)N)C(=O)N3CCCC[C@@H]3C(=O)O)cc2cc1OC [compound 220] | 2
COc1cc2ccc(S(=O)(=O)N[C@@H](CCCNC(=N)N)C(=O)N(CC(=O)O)C3CCCCC3)cc2cc1OC [compound 111] | 5
COCCN(CC(=O)Oc1cccc(C)c1)C(=O)[C@H](CCCNC(=N)N)NS(=O)(=O)c1ccc2cc(OC)c(OC)cc2c1 [compound 202] | 20
COCCN(C(=O)[C@H](CCCNC(=N)N)NS(=O)(=O)c1ccc2cc(OC)c(OC)cc2c1)C(C)C(=O)O (stereo partly shown) [compound 129] | 5
Cc1ccc2ccc(S(=O)(=O)N[C@@H](CCCNC(=N)N)C(=O)N(CC(=O)O)CC3CCCO3)cc2c1 (stereo partly shown) [compound 160] | 0.25
COc1ccc2ccc(S(=O)(=O)N[C@@H](CCCNC(=N)N)C(=O)N3CC[S+]([O-])CC3C(=O)O)cc2c1 (stereo partly shown) [compound 204] | 4.5
Cc1ccc2ccc(S(=O)(=O)N[C@@H](CCCNC(=N)N)C(=O)N(CC(=O)O)CC3CCCO3)cc2c1 (stereo partly shown) [compound 161] | 0.2
COc1cc2ccc(S(=O)(=O)N[C@@H](CCCNC(=N)N)C(=O)N(CC(=O)O)CC(C)C)cc2cc1OC [compound 5] | 2
CCCCN(CC(=O)O)C(=O)[C@H](CCCNC(=N)N)NS(=O)(=O)c1cccc2c1CCCC2 [compound 130] | 20
COc1cc2ccc(S(=O)(=O)N[C@@H](CCCNC(=N)N)C(=O)N3CCCC[C@H]3C(=O)O)cc2cc1OC [compound 221] | 15
COc1cc2ccc(S(=O)(=O)N[C@@H](CCCNC(=N)N)C(=O)N3CCOCC3C(=O)O)cc2cc1OC (stereo partly shown) [compound 191] | 5
CCCC(NC(=O)[C@H](CCCNC(=N)N)NS(=O)(=O)c1ccc2cc(OC)c(OC)cc2c1)C(=O)O (stereo partly shown) [compound 214] | 15
CCSCCN(CC(=O)O)C(=O)[C@H](CCCNC(=N)N)NS(=O)(=O)c1ccc2cc(OC)c(OC)cc2c1 [compound 69] | 5
Cc1ccc2ccc(S(=O)(=O)N[C@@H](CCCNC(=N)N)C(=O)N3CCC(C)CC3C(=O)O)cc2c1 (stereo partly shown) [compound 173] | 0.2
COc1ccc2ccc(S(=O)(=O)N[C@@H](CCCNC(=N)N)C(=O)N3CCCCCC3C(=O)O)cc2c1 (stereo partly shown) [compound 205] | 2.5

Other lines, results leading:

IC (2-fold clotting time) [µM] | Structure (SMILES)
6.5 | COc1ccc2cc(S(=O)(=O)N[C@@H](CCCNC(=N)N)C(=O)N(CC(=O)O)Cc3ccccc3)cc(OC)c2c1 [compound 58]
15 | COc1ccc2cc(S(=O)(=O)N[C@@H](CCCNC(=N)N)C(=O)N(CCC(=O)O)Cc3ccccc3)ccc2c1 [compound 62]
0.3 | CCCCN(CC(=O)O)C(=O)[C@H](CCCNC(=N)N)NS(=O)(=O)c1ccc2ccc(C)cc2c1 [compound 143]
6.5 | COc1ccc2ccc(S(=O)(=O)N[C@@H](CCCNC(=N)N)C(=O)N(CC[S+](C)[O-])CC(=O)O)cc2c1 (stereo partly shown) [compound 222]
0.2 | COCCN(CC(=O)O)C(=O)[C@H](CCCNC(=N)N)NS(=O)(=O)c1ccc2ccc(C)cc2c1 [compound 144]
2.5 | COCCN(CCCC(=O)O)C(=O)[C@H](CCCNC(=N)N)NS(=O)(=O)c1ccc2cc(OC)c(OC)cc2c1 [compound 17]
0.5 | CCCCN(CC(=O)O)C(=O)[C@H](CCCNC(=N)N)NS(=O)(=O)c1ccc2cc(OC)ccc2c1 [compound 31]
3 | COc1cc2ccc(S(=O)(=O)N[C@@H](CCCNC(=N)N)C(=O)N(CCc3ccccc3)CC(=O)O)cc2cc1OC [compound 54]
50 | COc1cc2ccc(S(=O)(=O)N[C@@H](CCCNC(=N)N)C(=O)N(CCC(=O)O)CCc3ccccc3)cc2cc1OC [compound 56]
20 | COc1ccc2ccc(S(=O)(=O)N[C@@H](CCCNC(=N)N)C(=O)N(CCc3ccccc3)CC(=O)O)cc2c1 [compound 64]
2.5 | COc1ccc2ccc(S(=O)(=O)N[C@@H](CCCNC(=N)N)C(=O)N(C)C(Cc3ccccc3)C(=O)O)cc2c1 (stereo partly shown) [compound 211]
1 | COc1ccc2ccc(S(=O)(=O)N[C@@H](CCCNC(=N)N)C(=O)N(CCSC)CC(=O)O)cc2c1 [compound 67]
1.5 | COc1cc2ccc(S(=O)(=O)N[C@@H](CCCNC(=N)N)C(=O)N(CCc3ccccc3)C(C)C(=O)O)cc2cc1OC (stereo partly shown) [compound 122]
0.2 | COc1ccc2ccc(S(=O)(=O)N[C@@H](CCCNC(=N)N)C(=O)N(CC(=O)O)Cc3ccco3)cc2c1 [compound 162]
50 | COc1ccc2cc(S(=O)(=O)N[C@@H](CCCNC(=N)N)C(=O)N(CCCC(=O)O)Cc3ccccc3)ccc2c1 [compound 60]
30 | N=C(N)NCCC[C@H](NS(=O)(=O)c1ccc2c(c1)CCCC2)C(=O)N(CC(=O)O)Cc1ccccc1 [compound 133]
0.5 | CCCCN(CC(=O)O)C(=O)[C@H](CCCNC(=N)N)NS(=O)(=O)c1ccc2ccc(OC)cc2c1 [compound 39]
10 | COc1cc2ccc(S(=O)(=O)N[C@@H](CCCNC(=N)N)C(=O)N(CCC(=O)O)Cc3ccccc3)cc2cc1OC [compound 52]
0.15 | COc1ccc2ccc(S(=O)(=O)N[C@@H](CCCNC(=N)N)C(=O)N(CC(=O)O)CC3CCCO3)cc2c1 (stereo partly shown) [compound 164]
2 | CCCCN(CC(=O)O)C(=O)[C@H](CCCNC(=N)N)NS(=O)(=O)c1cc(OC)c2cc(OC)ccc2c1 [compound 25]
2 | COc1cc2ccc(S(=O)(=O)N[C@@H](CCCNC(=N)N)C(=O)N(C)C(Cc3ccccc3)C(=O)O)cc2cc1OC (stereo partly shown) [compound 209]
